According to US12559475B2, “Tetrazine compound capable of having rapid cycloaddition reaction with non-strained olefinic boronic acid and biomedical application thereof” (NANJING UNIVERSITY, priority 2024, dated 2026):

Tests used:
[1] = Stability testing of tetrazine compounds in 10% FBS/DMEM (HPLC residual amount); type: physicochemical; conditions: 100 µM, 2.5% DMSO
Description: Specific implementation method: The tetrazine compounds were respectively dissolved in a 10% FBS/DMEM solution at a concentration of 100 µM (the solution contained 2.5% DMSO as a solubilizing agent), and residual amounts of tetrazine compounds were monitored via HPLC after 6 hours and 24 hours to analyze the stability of tetrazine compounds in a biological environment.

[2] = Reaction rate testing of tetrazine compounds and styryl boronic acid (HPLC); conditions: tetrazine 1 mM, styryl boronic acid 0.2 mM, methanol
Description: Specific implementation method: HPLC was used to test reaction rates by monitoring residual amounts of tetrazine compounds after different tetrazine compounds reacted with styryl boronic acid, where a molar concentration of the tetrazine compounds was 1 mM, and a molar concentration of styryl boronic acid was 0.2 mM, and a solvent was methanol solution.

HepG2 cells = test: Toxicity (MTT cell survival) in HepG2 cells; type: cell-based; conditions: for IC50: Homo sapiens, HepG2, 48 h incubation, 1% FBS DMEM, MTT
Description: Toxicity of the tetrazine Tz-2, the doxorubicin prodrug DOX-VBA, the addition product, and the doxorubicin DOX were first tested.
HepG2 cells were plated in a 96-well plate and attached overnight; 1% FBS DMEM was used as a culture medium on the next day, different concentrations of Tz-2, DOX-VBA, product, and DOX were then added to the culture medium, and incubation was performed at 37° C. for 48 h; and 50 μL 1×MTT was added, the reaction continued for 4 h, DMSO was added to remove the culture medium, and cell survival rates at different concentrations were tested to calculate IC50 values (the cell survival rates were shown in FIG. 6).

[3] = Molecular release testing of tetrazine compound and styryl boronic acid derivative VBA-2 (NMR); conditions: Tz-2 + VBA-2, 0.02 M, deuterated DMSO:deuterated H2O=9:1, NMR
Description: Specific implementation method: the tetrazine compound Tz-2 and the styryl boronic acid derivative VBA-2 were dissolved in a deuterated solution (deuterated DMSO:deuterated H2O=9:1) at a molar concentration of 0.02 M. Reactions after 5 min, 12 h and 24 h were tested using a 500 MHz a nuclear magnetic resonance analyzer, and characteristic signal peaks of reactants and products on a hydrogen spectrum were tested to assess molecular release.

| SMILES | residual amount of tetrazine compound ([1]; 6 h) | residual amount of tetrazine compound ([1]; 24 h) | k2 [2] | IC50 (HepG2 cells) | time in which half of the benzylamine molecules were released [3] | toxicity (in words) (HepG2 cells; HepG2 cells) |
| --- | --- | --- | --- | --- | --- | --- |
| COc1ccnc(-c2nnc(-c3ccc(CNC(=O)OC(C)(C)C)cc3)nn2)c1C [Tz-11] | 99% | 92% | 23 M⁻¹ s⁻¹ | – | – | – |
| COc1ccnc(-c2nnc(-c3ccc(NC(=O)OC(C)(C)C)cc3)nn2)c1C [Tz-10] | 99% | 92% | 45 M⁻¹ s⁻¹ | – | – | – |
| c1ccc(-c2nnc(-c3ccccn3)nn2)nc1 [Tz-Py, reference compound] | 35% | 1% | 1.4 M⁻¹ s⁻¹ | – | – | – |
| COc1cccc2c1C(=O)c1c(O)c3c(c(O)c1C2=O)C[C@@](O)(C(=O)CO)C[C@@H]3O[C@H]1C[C@H](N)[C@H](O)[C@H](C)O1 [DOX, doxorubicin, reference compound] | – | – | – | 0.5 µM | – | – |
| COc1ccnc(-c2nnc(-c3ccccn3)nn2)c1C [Tz-2] | 55% | 17% | 168 M⁻¹ s⁻¹ | > 100 µM | 12 h | non-toxic |
| COc1c(C)cnc(-c2nnc(-c3ccccc3)nn2)c1C [Tz-16] | 99% | 90% | 28 M⁻¹ s⁻¹ | – | – | – |
| COc1ccnc(-c2nnc(-c3ccccc3)nn2)c1C [Tz-1] | 99% | 85% | 56 M⁻¹ s⁻¹ | – | – | – |
